Three substances from US6664040B2, “Compositions and methods for delivery of a molecule into a cell” (priority 2000, dated 2003) can be followed below.

In series [1] the target is synthetic Vpr (sVpr), full-length, sequence derived from the isolate HIV-1 NL4-3 (HIV-1 (isolate NL4-3)) (UniProt P12520). The series is described as follows: SDS-PAGE without reducing agent, silver stain; dimers prevented by DTT.
Series [2] in a line: Solubility / absence of precipitation in aqueous solution. It counts as physicochemical.
Series [3] has as its system Jurkat T cells. The series can be described thus: Apoptosis induction in Jurkat T cells. The conditions noted are these: by 3 days. It counts as cell-based, human.
The subject of series [4] is Jurkat T cells. The series is described as follows: sVpr uptake by Jurkat T cells (flow cytometry). The class given is cell-based, human. An excerpt: (§1) Full length Vpr was chemically synthesized and fluorescently labeled, purified by reverse phase HPLC, and added to the extracellular media of various cell cultures. Flow cytometry and epifluorescence microscopy were employed to monitor cellular uptake of sVpr. The distribution of cells within different phases of the cell cycle was studied by To-Pro-3 dye staining of DNA followed by flow cytometric analysis.
(In flow cytometry, cells or beads pass a laser one at a time.)

For series [5], the system named is rat yolk choriocarcinoma L2-RYC cells. The series can be described thus: Cellular uptake of 125I-labeled peptides. It counts as cell-based. On the procedure:
sVpr and Vpu^32-81 were iodinated with the chloramine-T method. Briefly, ˜20 μg of peptides were reacted with 5.5×10^7 Bq (1.5 mCi) Na^125I. Free iodine was removed by gel filtration through a Dowex ion-exchange column saturated with bovine serum albumin (BSA). For studies on cellular uptake, rat yolk choriocarcinoma L2-RYC cells were grown in Dulbecco's modified Eagle's medium (DMEM) with 10% (v/v) fetal bovine serum (FBS) to 75% confluence on 24-well plates. Cells were washed once with phosphate-buffered saline (PBS) and incubated in serum-free DMEM supplemented with 0.1% BSA and ^125I-labeled sVpr or, as a negative control, ^125I-labeled Vpu^32-81. Radioactive peptides were added to the medium at a specific activity of 18 kBq ml^−1. In parallel, cells were also treated with a 100-fold excess of unlabeled sVpr or Vpu^32-81. Cells were incubated for specified times at 37° C., and the distribution of intra- and extracellular radioactivity was determined as described (50). […] Radioactivity was determined in triplicate in the medium and cell layer. To correct for nonspecific binding of peptides to the cell surface, the cell layer radioactivity determined at time point 0 min (time when radiolabeled peptides were added to the medium for less than 30 sec) was subtracted as background from the radioactivity detected in the cell layer.

Series [6] relates to cells. The series is described as follows: Transduction with and without urea denaturation (percent of cells FITC+). The class given is cell-based.
Excerpt: as §1

The subject of series [7] is cells. The series is described as follows: Trypsin-insensitive cellular uptake at 37° C. or 4° C. (geometric mean fluorescence). The class given is cell-based. Particulars: presence or absence of trypsin.
Excerpt: as §1

The subject of series [8] is peripheral blood mononuclear cells. The series can be described thus: Transduction of freshly isolated peripheral blood mononuclear cells. It counts as cell-based, human.
Excerpt: as §1

The subject of series [9] is Jurkat T cells. The series can be described thus: G2 cell cycle arrest in transduced Jurkat T cells. The class given is cell-based, human. Particulars: transduced subpopulations.
Excerpt: as §1

The subject of a further series is HIV-1 virions. The series is described as follows: Incorporation of sVpr into HIV-1 virions (western blot). It counts as cell-based. The conditions noted are these: anti-Vpr and anti-p24. (A western blot detects proteins with antibodies after separation by electrophoresis.)
A short description of series [10]: Immunization of rabbits with sVpr. It counts as in vivo, rabbit. Particulars: used to generate polyclonal and monoclonal antibodies.
Excerpt: A rabbit polyclonal antiserum, R-96, was generated by immunization with sVpr.
Series [11] in a line: Dynamic light scattering (DLS). It counts as physicochemical. On the procedure: DLS was performed on a DynaPro-801 Molecular Sizing Instrument. Protein solutions (250 μl) prepared either in water or in 50% aqueous TFE at a concentration of ˜3 mg ml^−1 (sVpr) or 4 mg ml^−1 (Vpr^47-96) were injected through a 0.1-μm Whatman membrane filter. Samples were illuminated by a semiconductor laser (780 nm, 25 mW) generated by a miniature solid-state Ga1-yAlyAs-diode. The photons scattered at a 90° angle by the particles in the sample were collected by an avalanche photodiode, and the time-dependent fluctuation in intensity of the scattered light was analyzed. The translational diffusion coefficient DT was calculated with the manufacturer's software (Dynamics, version 2.1). DT was then used to calculate the degree of sample polydispersity and the hydrodynamic radius of gyration RH of the particles using the Stokes-Einstein equation: (RH=(kbT)*(6πηDT)^−1 where kb=Boltzman's constant, T=absolute temperature in Kelvin, and η=solvent viscosity). Mr was calculated on a standard curve (Mr vs. RH) supplied by the manufacturer. Ten continuous measurements were made for each sample.

Another series relates to HIV-1 ΔVpr. The series can be described thus: HIV-1 ΔVpr replication in macrophages (RT activity) with sVpr in the extracellular medium. The conditions noted are these: monocyte-derived macrophages. It counts as cell-based.

In the case of “synthetic Vpr (sVpr), full-length, sequence derived from the isolate HIV-1 NL4-3 (from UniProt P12520 1-96)”, the percent of molecules as disulfide-linked dimers in [1] was 10%.

Turning to “sVpr: synthetic full-length 96-amino acid HIV-1 Vpr, sequence derived from isolate HIV-1 NL4-3 (SEQ ID NO: 1), made by solid-phase peptide synthesis”, the “concentration at which no precipitation was observed” value in series [2] (aqueous solution) is no less than 4000 µg/mL. Moreover, the “precipitation under CD solution conditions” value in series [2] (phosphate buffer pH 3.9 to 7.2, water, TFE) is on record as “no precipitation”. Moreover, in the series with Jurkat T cells [3], the apoptotic cells entry is recorded as “approximately 90%”. Besides, in the series on Jurkat T cells [4] (7.5, 15, 30 μg/ml), the “transduction of Jurkat T cells” value was “dose-dependent fashion”. Moreover, in the series on Jurkat T cells [4] (Jurkat T cells, at 5 min), the “Cy3-positive cells (uptake)” value was greater than 75%. For the same substance, the “level of intracellular peptide, maximum” value in [5] (125I-labeled, within 2 hours, 37° C.) was 8-10%. For the same substance, in series [5] (120 min), the “uptake with 100-fold excess of unlabeled sVpr” value is “not inhibited”. Also, in the series with cells [6], the “effect of urea denaturation on transduction properties” value is “does not enhance”. Besides, the “cell entry at 4° C.” value in the series with cells [7] is “enters cells at 4 °C”. The “transduction of CD4+, CD8+, CD3− lymphocytes and CD14+ monocytes” value in series [8] (freshly isolated mixed cell populations) is “equivalently transduced”. The “transduction of freshly isolated primary human cells” value in series [8] (nanomolar concentrations) was “rapidly and strongly transduces”. In addition, the “G2 cell cycle arrest” value in the series with Jurkat T cells [9] is on record as “induces a dose-dependent G2 cell cycle arrest”. Further, in the series with HIV-1 virions, the “incorporation into newly produced HIV-1 virions” value was “is incorporated into newly produced HIV-1 virions”. The immunogenicity result in series [10] was “highly immunogenic”. Moreover, in [11] (50% TFE), the “hydrodynamic radius RH (average)” value amounted to 2.3 nm. Moreover, the “replication of HIV viruses lacking Vpr” value with HIV-1 ΔVpr was “significantly increases”.

With “Vpr^47-96: peptide comprising the C-terminal domain of sVpr from positions Tyr-47 to Ser-96”, the “hydrodynamic radius RH of major species (monomer, 94.2% abundance)” value in series [11] (50% TFE) is reported as 1.25. The “hydrodynamic radius RH” value in series [11] (pure water (sVpr: 3.8 mg ml^−1, pH 3.0; components of 14% and 86% abundance)) was roughly 3 nm.
